The text below walks through data of US9169252B2 (BRISTOL-MYERS SQUIBB COMPANY, priority 2014, dated 2015).

Broadly, the EC50 is the concentration that produces a half-maximal response. A word on the IC50: it is the midpoint of a concentration-inhibition curve.

The test relates to TLR2 induced IL-6 in peripheral blood mononuclear cells (PBMCs). The test can be described thus: PBMC TLR2 Induced IL-6 Assay. The conditions noted are these: IL-6 by ELISA; for EC50: read-out: Cell EC50; for IC50: read-out: Cell IC50. The test is classed as cell-based, human. As for the experimental part:
PBMC TLR2 Induced IL-6 Assay
Peripheral blood mononuclear cells (PBMCs) were isolated from human blood containing the anti-coagulant EDTA (2.5 mM) by centrifugation over a FICOLL® gradient. PBMCs (250000 cells/well) were cultured in assay media (RPMI with 10% heat inactivated FCS) with compounds for 30 minutes at 37° C. in a 5% CO2 incubator. Following pretreatment with compounds, cells were stimulated for 5 hours with 10 µg/ml lipoteichoic acid (Invivogen, San Diego, Calif.), a TLR2 agonist. At the end of the culture, plates were centrifuged at 1800 rpm for 10 minutes to pellet the cells.

[1] abbreviates: human PBMCs, lipoteichoic acid stimulated.
Where [2] appears, read: Homo sapiens, PBMC, PBMC TLR2 Induced IL-6 Assay, lipoteichoic acid stimulation.
Where [3] appears, read: PBMC TLR2 Induced IL-6 Assay, lipoteichoic acid stimulation.
[4] abbreviates: Homo sapiens, PBMC, human PBMCs, lipoteichoic acid stimulated.

The structures appear in SMILES notation. Like-named read-outs stand apart in the source and are kept apart here.

For the molecule `CC(C)(O)[C@H](F)CNC(=O)c1cnc(-n2ncc3cc(F)cnc32)cc1NC1CCC(O)C1` (mixture of isomers) [Example 611], under setting [1], the EC50 stood at 536 nM and the IC50 came to 1850 nM.

As for `CC(C)(O)[C@H](F)CNC(=O)c1cnc(-n2ccc3cc(C#N)cnc32)cc1NC1CCCOC1` (single isomer, unassigned) [Example 7], under setting [2], the EC50 is 477 nM and the IC50 came to 477 nM. Turning to `CC(C)(O)[C@H](F)CNC(=O)c1cnc(-n2ccc3cc(C#N)cnc32)cc1NC1CCCOC1` (single isomer, unassigned) [Example 8], under setting [3], the half-maximal effective concentration (EC50) was determined as 695 nM and the half-maximal inhibitory concentration (IC50) worked out at 695 nM. With `CC(C)(O)[C@H](F)CNC(=O)c1cnc(-n2ccc3cc(C#N)cnc32)cc1NC1CCC(O)C1` (single isomer, unassigned) [Example 24], under setting [3], the concentration for a half-maximal effect (EC50) stood at 30 nM.

Consider `CC(C)(O)[C@H](F)CNC(=O)c1cnc(-n2ccc3cc(C#N)cnc32)cc1NC1CCC(O)C1` (single isomer, unassigned) [Example 25], for which the EC50 under setting [3] stood at 22 nM. As to `CC(C)(O)[C@H](F)CNC(=O)c1cnc(-n2ccc3cc(C#N)cnc32)cc1NC1CCC(O)C1` (single isomer, unassigned) [Example 26], under setting [3], the concentration for a half-maximal effect (EC50) came to 168 nM. For `CC(C)(O)[C@H](F)CNC(=O)c1cnc(-n2ccc3cc(C#N)cnc32)cc1NC1CCC(O)C1` (single isomer, unassigned) [Example 27], under setting [3], the concentration for a half-maximal effect (EC50) came to 44 nM. For the molecule `CC(C)Nc1cc(-n2ccc3cc(C#N)cnc32)ncc1C(=O)NC[C@@H](F)C(C)O` (single isomer, unassigned) [Example 48], the EC50 under setting [3] is 24 nM.

As to `CC(C)Nc1cc(-n2ccc3cc(C#N)cnc32)ncc1C(=O)NC[C@@H](F)C(C)O` (single isomer, unassigned) [Example 49], the concentration giving a half-maximal response (EC50) under setting [3] was 71 nM.

Take `CC(C)(O)[C@H](F)CNC(=O)c1cnc(-n2ccc3cc(C#N)cnc32)cc1N[C@@H]1COC[C@H]1F` (single isomer, unassigned) [Example 458]: the half-inhibitory concentration (IC50) under setting [4] came out at 260 nM. Further, the EC50 under setting [1] was 261 nM. As to `CC(C)(O)[C@H](F)CNC(=O)c1cnc(-n2ccc3cc(C#N)cnc32)cc1N[C@@H]1COC[C@H]1F` (single isomer, unassigned) [Example 459], under setting [1], the concentration for a half-maximal effect (EC50) amounted to 95 nM and the IC50 was 343 nM. With `CC(O)CCNc1cc(-n2ncc3cc(C#N)cnc32)ncc1C(=O)NC[C@@H](F)C(C)(C)O` (single isomer, unassigned) [Example 572], the concentration for half-maximal inhibition (IC50) under setting [4] was determined as 303 nM. For the molecule `CC(O)CCNc1cc(-n2ncc3cc(C#N)cnc32)ncc1C(=O)NC[C@@H](F)C(C)(C)O` (single isomer, unassigned) [Example 573], the concentration giving a half-maximal response (EC50) under setting [4] turned out to be 729 nM. Moreover, the IC50 under setting [1] is 270 nM. For `CC(C)(O)[C@H](F)CNC(=O)c1cnc(-n2ncc3cc(F)cnc32)cc1NC1CCC(O)C1` (single isomer, unassigned) [Example 609], under setting [1], the EC50 is 485 nM and the half-inhibitory concentration (IC50) is 1440 nM.

For the molecule `CC(C)(O)[C@H](F)CNC(=O)c1cnc(-n2ncc3cc(F)cnc32)cc1NC1CCC(O)C1` (single isomer, unassigned) [Example 610], under setting [1], the concentration for a half-maximal effect (EC50) was found to be 166 nM and the IC50 turned out to be 217 nM. As to `CC(C)(O)[C@H](F)CNC(=O)c1cnc(-n2ncc3cc(Cl)cnc32)cc1N[C@@H]1C[C@H]1CO` (single isomer, unassigned) [Example 645], under setting [1], the IC50 was 154 nM. Regarding `CC(C)(O)[C@H](F)CNC(=O)c1cnc(-n2ncc3cc(Cl)cnc32)cc1N[C@@H]1C[C@H]1CO` (single isomer, unassigned) [Example 646], under setting [1], the IC50 worked out at 393 nM. As for `COc1cccc(Nc2cc(-n3ccc4cc(C#N)cnc43)ncc2C(=O)NC[C@@H](F)C(C)(C)O)c1` [Example 51, (R)-6-(5-cyano-1H-pyrrolo[2,3-b]pyridin-1-yl)-N-(2-fluoro-3-hydroxy-3-methylbutyl)-4-((3-methoxyphenyl)amino)nicotinamide], the 50% effective concentration (EC50) under setting [2] came out at 65 nM. Regarding `CC(C)Nc1cc(-n2ccc3cc(Cl)cnc32)ncc1C(=O)NC[C@@H](F)C(C)(C)O` [Example 76, (R)-6-(5-chloro-1H-pyrrolo[2,3-b]pyridin-1-yl)-N-(2-fluoro-3-hydroxy-3-methylbutyl)-4-(isopropylamino) nicotinamide], the 50% inhibitory concentration (IC50) under setting [2] turned out to be 395 nM. `CNC(=O)[C@H]1CC[C@H](NC(=O)c2cnc(-n3ccc4cc(C#N)cnc43)cc2NC2CCOCC2)CC1` [Example 86, 6-(5-cyano-1H-pyrrolo[2,3-b]pyridin-1-yl)-N-((trans)-4-(methylcarbamoyl)cyclohexyl)-4-((tetrahydro-2H-pyran-4-yl)amino)nicotinamide]: the EC50 under setting [2] was determined as 110 nM. Same read-out and setting: then `CC(C)Nc1cc(-n2ccc3cc(C#N)cnc32)ncc1C(=O)N[C@H]1CC[C@H]([N+](=O)[O-])CC1` [Example 95, 6-(5-cyano-1H-pyrrolo[2,3-b]pyridin-1-yl)-4-(isopropylamino)-N-((trans)-4-nitrocyclohexyl)nicotinamide], with 408 nM; and `CC(C)(O)[C@H](F)CNC(=O)c1cnc(-n2ccc3cc(C#N)cnc32)cc1NC1CCCC(F)(F)C1O` (stereo partly drawn) [Example 111, 6-(5-cyano-1H-pyrrolo[2,3-b]pyridin-1-yl)-4-((3,3-difluoro-2-hydroxycyclohexyl)amino)-N—((R)-2-fluoro-3-hydroxy-3-methylbutyl) nicotinamide], with 238 nM; and `CC(C)(O)[C@H](F)CNC(=O)c1cnc(-n2ncc3cncnc32)cc1NC1CC1` [Example 134, (R)-4-(cyclopropylamino)-N-(2-fluoro-3-hydroxy-3-methylbutyl)-6-(1H-pyrazolo[3,4-d]pyrimidin-1-yl)nicotinamide], with 282 nM.

In the case of `CC(C)(O)[C@H](F)CNC(=O)c1cnc(-n2ncc3cc(Cl)cnc32)cc1NC1CCOCC1` [Example 135, (R)-6-(5-chloro-1H-pyrazolo[3,4-b]pyridin-1-yl)-N-(2-fluoro-3-hydroxy-3-methylbutyl)-4-((tetrahydro-2H-pyran-4-yl)amino) nicotinamide], the EC50 under setting [2] is 168 nM. Consider `CC(C)(O)[C@H](F)CNC(=O)c1cnc(-n2ncc3cc(Cl)cnc32)cc1NC1CC1` [Example 136, (R)-6-(5-chloro-1H-pyrazolo[3,4-b]pyridin-1-yl)-4-(cyclopropylamino)-N-(2-fluoro-3-hydroxy-3-methylbutyl)nicotinamide], for which the half-maximal effective concentration (EC50) under setting [2] stood at 133 nM.

On to `CC(C)Nc1cc(-n2ncc3cc(Cl)cnc32)ncc1C(=O)NC[C@@H](F)C(C)(C)O` [Example 137, (R)-6-(5-chloro-1H-pyrazolo[3,4-b]pyridin-1-yl)-N-(2-fluoro-3-hydroxy-3-methylbutyl)-4-(isopropylamino)nicotinamide], for which the EC50 under setting [2] came out at 84 nM. Turning to `CC(C)Nc1cc(-n2ncc3cc(O)cnc32)ncc1C(=O)NC[C@@H](F)C(C)(C)O` [Example 153, (R)—N-(2-fluoro-3-hydroxy-3-methylbutyl)-6-(5-hydroxy-1H-pyrazolo[3,4-b]pyridin-1-yl)-4-(isopropylamino)nicotinamide], the EC50 under setting [2] came to 160 nM. The same measure, in the same setting: for `CC(C)Nc1cc(-n2cnc3cncnc32)ncc1C(=O)NC[C@@H](F)C(C)(C)O` [Example 170, (R)—N-(2-Fluoro-3-hydroxy-3-methylbutyl)-4-(isopropylamino)-6-(9H-purin-9-yl) nicotinamide] the value was 423 nM. For the molecule `CC(C)Nc1cc(-n2ccc3cc(C#N)cnc32)ncc1C(=O)N[C@H]1CC[C@](O)(c2ccnn2C)CC1` [Example 173, 6-(5-Cyano-1H-pyrrolo[2,3-b]pyridin-1-yl)-N-((1s,4s)-4-hydroxy-4-(1-methyl-1H-pyrazol-5-yl)cyclohexyl)-4-(isopropylamino)nicotinamide], under setting [2], the concentration giving a half-maximal response (EC50) is 81 nM and the half-maximal inhibitory concentration (IC50) is 242 nM. For `CC(C)Nc1cc(-n2ncc3cc(C#N)cnc32)ncc1C(=O)NCC1CCS(=O)(=O)C1` (stereo not drawn) [Example 209], the EC50 under setting [2] is 322 nM. For the molecule `CC(C)Nc1cc(-n2ncc3cc(C#N)cnc32)ncc1C(=O)N[C@H]1CC[C@H](NC(=O)[C@H](C)O)CC1` [Example 274], the IC50 under setting [2] was 204 nM. Same read-out and setting: then `CC(C)Nc1cc(-n2ncc3cc(Cl)c(N)nc32)ncc1C(=O)NC[C@@H](F)C(C)(C)O` [Example 282], with 541 nM.

For `CC(C)Nc1cc(-n2ncc3cc(C#N)cnc32)ncc1C(=O)N[C@H]1CC[C@H](NC(=O)[C@@H](C)O)CC1` [Example 287], under setting [2], the IC50 came to 489 nM. As for `CC(Nc1cc(-n2ncc3cc(C#N)cnc32)ncc1C(=O)NC[C@@H](F)C(C)(C)O)C(F)(F)F` (stereo partly drawn) [Example 297], the concentration for half-maximal inhibition (IC50) under setting [2] amounted to 219 nM. `CCCNc1cc(-n2ncc3cc(C#N)cnc32)ncc1C(=O)NC[C@@H](F)C(C)(C)O` [Example 337]: under setting [2], the EC50 stood at 572 nM and the IC50 worked out at 765 nM.

With `Cn1cc(Nc2cc(-n3ncc4cc(C#N)cnc43)ncc2C(=O)NC[C@@H](F)C(C)(C)O)cn1` [Example 387], the half-maximal inhibitory concentration (IC50) under setting [2] worked out at 198 nM. Turning to `CC(C)Nc1cc(-n2ccc3cc(C#N)ccc32)ncc1C(=O)N[C@H]1CC[C@H](C(C)(C)O)CC1` [Example 414, 6-(5-Cyano-1H-indol-1-yl)-N-((1R,4R)-4-(2-hydroxypropan-2-yl)cyclohexyl)-4-(isopropylamino)nicotinamide], the concentration giving a half-maximal response (EC50) under setting [4] came out at 188 nM. Same read-out and setting: then `COC(C)(C)[C@H](F)CNC(=O)c1cnc(-n2ccc3cc(C#N)cnc32)cc1NC(C)C` [Example 434], with 57 nM.
